Where only a bound is given, the exact number is not on record here.

The test has as its system Grape Downy Mildew (Plasmopara viticola). Put plainly: Test Example 6: treating grape downy mildew, foliage application. The settings on record: 500 ppm, foliage application 1 day after inoculation (curative), grape (Berry-A or Chardonnay seedling), 5 days green house then 1 day high humidity.

Description: Such control effect was evaluated by visually observing the area of blotch on a test plant during a test and then comparing the area of the blotch of a plant treated with the controlling reagent of the present invention with the area of the blotch of an untreated plant.
A plastic pot was filled with sandy soil, and grape (variety: Berry-A or Chardonnay seedling) was then seeded. The grape plants were allowed to grow in a green house for 40 days. A water suspension of zoosporangium of grape Plasmopara viticola was inoculated to the aforementioned pot by spaying it. Thereafter, the grape plants were left at 23° C. at a high humidity for 1 day, and they were then air-dried, so as to obtain grape downy mildew-infected nursery plants. […] The prepared flowable formulations were set to a predetermined concentration (500 ppm) by diluting them with water, and they were then subjected to foliage application such that they could be sufficiently attached to the leaves of the aforementioned nursery grape plants. After completion of the foliage application, the plants were subjected to air-drying, and they were then left at 23° C. in a green house for 5 days. Thereafter, the plants were further left at 23° C. at a high humidity for 1 day. Thereafter, the affected areas thereof were examined.

`Cc1ccc(Oc2ccc(CNC(=O)c3cccnc3N)s2)cc1` [compound 236]: the “affected areas of treated plants relative to affected areas of untreated plants” value is at most 30%.

These data come from US20110009454A1, “COMPOSITION FOR AGRICULTURAL USE FOR CONTROLLING OR PREVENTING PLANT DISEASES CAUSED BY PLANT PATHOGENS” (SUMITOMO CHEMICAL COMPANY, LIMITED, priority 2008, published 2011).
